From patent US20090022824A1, “Pesticidal formulations” (Akhil Technologies Pty Ltd, priority 2005, published 2009)

System: root-knot nematode (Meloidogyne javanica)
Test: Efficacy to control root-knot nematode, pot trial with tomato plants
Format: in vivo
Settings: tomato cv. Tiny Tim, relative to untreated control
Description: The efficacy of pesticidal formulations in the control of root-knot nematode (Meloidogyne javanica) as a pre-plant soil pesticidal formulation was investigated.
The root-knot nematode colonies were prepared with 1 kg of river sand placed in 100 mm diameter pots. The sand was inoculated with 10,000 eggs of root-knot nematode (M. javanica). The eggs were harvested from the roots of infected tomato plants (Lycopersicon esculentum cv. Tiny Tim) by washing in a 1% bleach solution for 3 minutes, collecting the […] on a 25 μm sieve and rinsing in running tap water for 2 minutes.
The appropriate treatment was applied to each pot in 5 mL of water using five 1 mL injections spaced evenly around the pot. Each dilution of the pesticidal formulation was applied using a pipette so that the tip of the pipette was 20 mm below the soil surface. The pots were allowed to stand for 7 days before planting a three week old tomato plant (c.v. Tiny Tim) in each pot.
Six weeks after planting the tomatoes were harvested. The tops of the plants were removed and dried for 4 days at 70° C. before being weighed. […] The juvenile nematodes were collected on a 25 μm sieve, backwashed and counted using a compound microscope at 40× magnification. […]

CNC(=S)[S-].[Na+] [metham sodium]
juvenile root-knot nematodes extracted from the roots (six weeks after planting, FIG. 2): significantly fewer | galls on the root system of tomato plants (gall rating) (soil inoculated with 10,000 eggs, harvested six weeks after planting, FIG. 1): significantly fewer
